Measured values as given in patent US20200215082A1, “Dihydrotestosterone and Dihydrotestosterone Derivatives and Promoters in the Treatment of Cancer” (Tyme, Inc., priority 2016, published 2020).

Tested on: cancerous tumor of the distal radius
Assay: Treatment of a canine with a cancerous tumor of the distal radius (X-ray)
Assay type: in vivo
Conditions: after stanozolol administration, FIG. 1 before, FIG. 2 after, dose and route not given
Description: FIG. 1 is an X-ray depicting a cancerous tumor on the distal radius of a canine.
FIG. 2 is an X-ray depicting calcification of the cancerous tumor shown in FIG. 1 after treatment according to a preferred aspect of the disclosure.
A canine presenting with a cancerous tumor of the distal radius (see FIG. 1) was administered stanozolol.

stanozolol
calcification of the cancerous tumor: the cancerous tumor calcified
